Measured values as given in patent US20110201564A1, “SUBSTITUTED 7-SULFANYLMETHYL, 7-SULFINYLMETHYL AND 7-SULFONYLMETHYL INDOLES AND USE THEREOF” (BAYER SCHERING PHARMA AKTIENGESELLSCHAFT, priority 2008, published 2011).
Read-outs that look alike come from different tables or passages of the source.

Columns and labels:
[1] = molecular target: T1, human mineralocorticoid receptor (MR) (Homo sapiens, UniProt P08235); experiment: Cellular in vitro assay, GAL4-MR chimera luciferase reporter in CHO K1 cells (inhibitory MR activity); format: cell-based; details: antagonism vs aldosterone; CHO K1 GAL4-MR LBD luciferase reporter
T1 construct: expressed in transfected cells; host or cells: CHO K1
T1 sequence (P08235 734-984 limits assumed): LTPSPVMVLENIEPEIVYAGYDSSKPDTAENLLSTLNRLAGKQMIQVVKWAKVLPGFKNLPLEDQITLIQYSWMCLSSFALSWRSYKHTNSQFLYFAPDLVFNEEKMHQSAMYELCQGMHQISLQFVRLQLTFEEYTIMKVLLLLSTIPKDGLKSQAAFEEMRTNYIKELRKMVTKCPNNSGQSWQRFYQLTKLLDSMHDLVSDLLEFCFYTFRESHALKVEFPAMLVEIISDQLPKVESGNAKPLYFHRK
Source text: (§1) 1. Cellular In Vitro Assay to Determine the Inhibitory MR Activity and MR Selectivity Compared with Other Steroid Hormone Receptors
(§2) Antagonists of the human mineralocorticoid receptor (MR) are identified, and the activity of the compounds described herein is quantified with the aid of a recombinant cell line. The cell is originally derived from a hamster ovary epithelial cell (Chinese Hamster Ovary, CHO K1, ATCC: American Type Culture Collection, VA 20108, USA).
(§3) An established chimera system in which the ligand-binding domains of human steroid hormone receptors are fused to the DNA-binding domain of the yeast transcription factor GAL4 is used in this CHO K1 cell line. The GAL4-steroid hormone receptor chimeras produced in this way are cotransfected and stably expressed with a reporter construct in the CHO cells.
(§4) To generate the GAL4-steroid hormone receptor chimeras, the GAL4 DNA-binding domain (amino acids 1-147) from the vector pFC2-dbd (from Stratagene) is cloned with the PCR-amplified ligand-binding domains of the mineralocorticoid receptor (MR, amino acids 734-985), of the progesterone receptor (PR, amino acids 680-933) and of the androgen receptor (AR, amino acids 667-919) into the vector pIRES2 (from Clontech). The reporter construct, which comprises five copies of the GAL4 binding site upstream of a thymidine kinase promoter, leads to expression of firefly luciferase (Photinus pyralis) after activation and binding of the GAL4-steroid hormone receptor chimeras by the respective specific agonists aldosterone (MR), dexamethasone (GR), progesterone (PR) and dihydrotestosterone (AR).
(§5) The MR, PR and AR cells are plated out in medium (Optimem, 2.5% FCS, 2 mM glutamine, 10 mM HEPES) in 96- (or 384- or 1536-)well microtiter plates on the day before the assay and are kept in a cell incubator (96% humidity, 5% v/v CO2, 37° C.). On the day of the assay, the substances to be tested are taken up in the abovementioned medium and added to the cells. About 10 to 30 minutes after addition of the test substances, the respective specific agonists of the steroid hormone receptors are added. After a further incubation time of 5 to 6 hours, the luciferase activity is measured with the aid of a video camera. The measured relative light units as a function of the substance concentration result in a sigmoidal stimulation curve. The IC50 values are calculated with the aid of the GraphPad PRISM computer program (Version 3.02).

[2] = molecular target: T2, progesterone receptor (PR) (Homo sapiens, UniProt P06401); experiment: Cellular in vitro assay, GAL4-PR chimera luciferase reporter in CHO K1 cells (selectivity); format: cell-based; details: antagonism vs progesterone; CHO K1 GAL4-PR LBD luciferase reporter
T2 construct: of the progesterone receptor (PR, amino acids 680-933); expressed in transfected cells; host or cells: CHO K1
T2 sequence (P06401 680-933): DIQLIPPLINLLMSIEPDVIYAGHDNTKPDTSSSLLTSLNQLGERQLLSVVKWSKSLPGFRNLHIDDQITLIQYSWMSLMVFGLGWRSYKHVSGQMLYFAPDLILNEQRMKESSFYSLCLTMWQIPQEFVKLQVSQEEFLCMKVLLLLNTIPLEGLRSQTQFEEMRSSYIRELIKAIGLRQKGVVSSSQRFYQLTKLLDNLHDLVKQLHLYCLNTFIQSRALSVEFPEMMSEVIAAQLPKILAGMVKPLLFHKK
Source text: as §1, §2, §3, §4, §5

CYP3A4 = molecular target: T3, CYP3A4 (Homo sapiens, UniProt P08684); experiment: CYP inhibition assay with human liver microsomes; format: in vitro ADME
T3 construct: using human liver microsomes (pool from various individuals); from tissue; host or cells: human liver microsomes (pool from various individuals)
T3 sequence (P08684 whole entry): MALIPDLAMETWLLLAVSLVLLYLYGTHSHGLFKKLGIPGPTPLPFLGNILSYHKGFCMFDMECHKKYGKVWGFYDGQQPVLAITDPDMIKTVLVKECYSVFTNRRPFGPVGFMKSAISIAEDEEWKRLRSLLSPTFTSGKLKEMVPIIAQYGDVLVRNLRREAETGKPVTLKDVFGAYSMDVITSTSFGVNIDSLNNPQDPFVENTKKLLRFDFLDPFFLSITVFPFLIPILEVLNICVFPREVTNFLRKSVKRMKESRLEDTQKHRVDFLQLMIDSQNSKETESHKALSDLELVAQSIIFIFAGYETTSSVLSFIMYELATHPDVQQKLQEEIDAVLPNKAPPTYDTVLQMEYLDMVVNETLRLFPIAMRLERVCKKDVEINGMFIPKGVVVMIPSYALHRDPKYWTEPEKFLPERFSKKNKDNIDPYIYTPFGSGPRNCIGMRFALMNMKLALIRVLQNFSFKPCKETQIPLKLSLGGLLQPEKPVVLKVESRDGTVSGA
Source text: Inhibitory properties of an active ingredient on the cytochromes P450 (CYP) of the human body may entail extensive clinical effects (drug interactions) because most of the prescribed medicaments are degraded (metabolized) by these enzymes. The ones involved in this are in particular the CYP isoenzymes of the 1A and 2C families, CYP2D6 and, with a proportion of almost 50%, CYP3A4. In order to preclude or minimize these possible drug interactions (Drug-Drug Interactions, DDI), the ability of substances to be able to inhibit CYP1A2, CYP2C8, CYP2C9, CYP2D6 and CYP3A4 in humans is investigated using human liver microsomes (pool from various individuals). This takes place by measuring CYP isoform-specific metabolites formed from standard substrates such as, for example, phenacetin, amodiaquin, diclofenac, dextromethorphan, midazolam and testosterone. The inhibitory effects are investigated at six different concentrations of the test compounds (1.5, 3.1, 6.3, 12.5, 25 and 50 μM as maximum concentration or 0.6, 1.3, 2.5, 5, 10 and 20 μM as maximum concentration), comparing with the extent of the CYP isoform-specific metabolite formation of the standard substrates in the absence of the test compounds, and calculating the corresponding IC50 values. CYP isoform-specific standard inhibitors such as, for example, fluvoxamine, quercetin, sulfaphenazole, fluoxetine and ketoconazole serve as control of the results obtained. In order to obtain indications of the possible mechanism-based inhibitors (MBI) on CYP3A4, the human liver microsomes are incubated in the presence of the inhibitor to be investigated for 30 minutes before the addition of midazolam or testosterone as standard substrates of CYP3A4. A reduction in the IC50 obtained by comparison with the mixture without preincubation serves as an indicator of a mechanism-based inhibition. Mibefradil serves as positive control.
The incubations of the standard substrates with human liver microsomes (23-233 μg/mL) in the presence of the test compound (as potential inhibitor) are carried out in 96-well plates in a workstation (Tecan, Genesis, Crailsheim, Germany) at 37° C. The incubation times are 15-20 minutes. The test compounds are preferably dissolved in acetonitrile (1.0 or 2.5 mM stock solution). The 96-well plates are produced by sequential addition of a stock solution of NADP+, EDTA, glucose 6-phosphate and glucose-6-phosphate dehydrogenase in phosphate buffer (pH 7.4), the test compound, and a solution of standard substrate and human liver microsomes in phosphate buffer (pH 7.4). The total volume is 200 μl. The corresponding control incubations with and without standard inhibitor also take place on the 96-well plate. The incubations are stopped after the respective incubation time by adding 100 μl of acetonitrile in which there is a suitable internal standard. Precipitated proteins are removed by centrifugation (3000 rpm, 10 minutes, 10° C.). The resulting supernatants of the respective plates are combined on one plate and analyzed by LC-MS/MS. The […] values are generated from the resulting measured data and used to assess the inhibitory potential of the test compound.

androgen receptor (AR) = molecular target: T4, androgen receptor (AR) (Homo sapiens, UniProt P10275); experiment: Cellular in vitro assay, GAL4-AR chimera luciferase reporter in CHO K1 cells (selectivity); format: cell-based; details: antagonism vs dihydrotestosterone; CHO K1 GAL4-AR LBD luciferase reporter
T4 construct: of the androgen receptor (AR, amino acids 667-919); expressed in transfected cells; host or cells: CHO K1
T4 sequence (P10275 668-920): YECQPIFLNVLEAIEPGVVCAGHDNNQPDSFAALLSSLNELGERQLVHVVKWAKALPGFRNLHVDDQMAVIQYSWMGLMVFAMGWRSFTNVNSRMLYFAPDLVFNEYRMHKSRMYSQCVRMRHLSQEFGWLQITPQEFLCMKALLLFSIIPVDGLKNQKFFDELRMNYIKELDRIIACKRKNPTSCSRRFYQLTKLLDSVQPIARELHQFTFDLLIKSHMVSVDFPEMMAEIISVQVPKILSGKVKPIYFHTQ
Source text: as §1, §2, §3, §4, §5

[3] = 30 min preincubation with test compound before substrate, read-out: CYP 3A4 Preincubation, 30 min.
[4] = without preincubation, read-out: CYP 3A4 Coincubation

IC50 [1] [nM]	IC50 [2] [nM]	IC50 (CYP3A4; [3]) [nM]	IC50 (CYP3A4; [4]) [nM]	IC50 (androgen receptor (AR)) [nM]	SMILES
220	10000	17600	> 20000		Cc1ccc(C(CCC#N)c2c[nH]c3c(CS(C)(=O)=O)cccc23)cc1 (stereo not shown) [Example 166, 4-(4-Methylphenyl)-4-{7-[(methylsulfonyl)methyl]-1H-indol-3-yl}butanonitrile]
170		> 20000	> 20000		CS(=O)(=O)Cc1cccc2c(C(c3ccc(C(F)(F)F)cc3)C3CC3)c[nH]c12 (stereo not shown) [Example 244, 3-{Cyclopropyl[4-(trifluoromethyl)phenyl]methyl}-7-[(methylsulfonyl)methyl]-1H-indole]
18	2140			3390	CCC(CCC#N)(c1ccc(Cl)cc1)c1c[nH]c2c(CSC)cccc12 (stereo not shown) [Example 157, 4-(4-Chlorophenyl)-4-{7-[(methylsulfanyl)methyl]-1H-indol-3-yl}hexanonitrile]
210	4810			6570	C[S+]([O-])Cc1cccc2c(C(c3ccc(Cl)cc3)c3ccc(Cl)cc3)c[nH]c12 (racemic) [Example 296, 3-[Bis(4-chlorophenyl)methyl]-7-[(methylsulfinyl)methyl]-1H-indole]
460	10000			5240	CSCc1cccc2c(C(c3ccc(F)cc3)c3ccc(Cl)cc3)c[nH]c12 (stereo not shown) [Example 100, 3-[(4-Chlorophenyl)(4-fluorophenyl)methyl]-7-[(methylsulfanyl)methyl]-1H-indole]
29	2720			4760	CCC(CCC#N)(c1ccc(Cl)cc1)c1c[nH]c2c(C[S+](C)[O-])cccc12 (mixture of isomers) [Example 163, 4-(4-Chlorophenyl)-4-{7-[(methylsulfinyl)methyl]-1H-indol-3-yl}hexanonitrile]
39	5230			9030	CSCc1cc(F)cc2c(C(c3ccc(C)cc3)C3CC3C#N)c[nH]c12 (stereo not shown) [Example 260, 2-[{5-Fluoro-7-[(methylsulfanyl)methyl]-1H-indol-3-yl}(4-methylphenyl)methyl]cyclopropane-carbonitrile]
42	8120			2730	CS(=O)(=O)Cc1cccc2c(C3(C4CC4)CCOc4cc(F)cc(F)c43)c[nH]c12 (stereo not shown) [Example 219, 3-(4-Cyclopropyl-5,7-difluoro-3,4-dihydro-2H-chromen-4-yl)-7-[(methylsulfonyl)methyl]-1H-indole]
140	4580			6440	CCC(CCO)(c1ccc(Cl)cc1)c1c[nH]c2c(C[S+](C)[O-])cccc12 (mixture of isomers) [Example 143, 3-(4-Chlorophenyl)-3-{7-[(methylsulfinyl)methyl]-1H-indol-3-yl}pentan-1-ol]
12	7530			520	CS(=O)(=O)Cc1cccc2c(C(c3ccc(Cl)cc3Cl)C3CC3(F)F)c[nH]c12 (single isomer, unassigned) [Example 325-1-1, 3-[(2,4-Dichlorophenyl)(2,2-difluorocyclopropyl)methyl]-7-[(methylsulfonyl)methyl]-1H-indole]
40	4810			3760	CS(=O)(=O)Cc1cc(F)cc2c(C(CCC#N)c3ccc(Cl)cc3Cl)c[nH]c12 (stereo not shown) [Example 63, 4-(2,4-Dichlorophenyl)-4-{5-fluoro-7-[(methylsulfonyl)methyl]-1H-indol-3-yl}butanonitrile]
190	3910			5070	CS(=O)(=O)Cc1cccc2c(C(CCC#N)c3ccc(C(F)(F)F)cc3F)c[nH]c12 (stereo not shown) [Example 68, 4-[2-Fluoro-4-(trifluoromethyl)phenyl]-4-{7-[(methylsulfonyl)methyl]-1H-indol-3-yl}butanonitrile]
78	1980			2920	CSCc1cc(F)cc2c(C(CCC#N)c3ccc(Cl)cc3)c[nH]c12 (stereo not shown) [Example 43, 4-(4-Chlorophenyl)-4-{5-fluoro-7-[(methylsulfanyl)methyl]-1H-indol-3-yl}butanonitrile]
16	1510			1120	CSCc1cccc2c(C(CCC#N)c3ccc(Cl)cc3F)c[nH]c12 (single isomer, unassigned) [Example 38-1, 4-(4-Chloro-2-fluorophenyl)-4-{7-[(methylsulfanyl)methyl]-1H-indol-3-yl}butanonitrile]
100	8560			5010	CSCc1cccc2c(C(c3ccc(F)cc3)c3ccc(Cl)cc3F)c[nH]c12 (stereo not shown) [Example 104, 3-[(4-Chloro-2-fluorophenyl)(4-fluorophenyl)methyl]-7-[(methylsulfanyl)methyl]-1H-indole]
